# Patent publication US20140350273A1, “PEDIATRIC USES OF CABAZITAXEL” (AVENTIS PHARMA S.A., priority 2012, published 2014)
# Like-named read-outs stand apart in the source and are kept apart here.
# System: human Ewing's sarcoma SK-ES-1
# Format: in vivo
# Parameters: Tumor volume changes from baseline: Median (nMad): unit not given here
# Experimental: This efficacy may be quantified, for example, as changes in tumor volume for each treated (T) and control (C) group, which are calculated for each animal and each day by subtracting the tumor volume on the day of first treatment (staging day) from the tumor volume on the specified observation day. This allows calculating the tumor growth inhibition: ΔT/ΔC=(median delta T/median delta C)×100. Individual tumor volume changes from baseline are thereafter analyzed by a non-parametric two-way ANOVA-TYPE (with factors: group and repeated days) followed by a post-hoc contrasts analysis, with Bonferroni-Holm adjustment for multiplicity, comparing all treated groups to the control group. […] A probability less than 5% (p<0.05) was considered as significant.
# Based on the National Cancer Institute (NCl) standards, a ΔT/ΔC≦40% is the minimal level required to declare activity.
# The tumor doubling time (in days; Td) was estimated from the plot of the log linear growth of the control group tumors in exponential growth (100 to 1000 mm^3 range) [T. H. Corbett et al., Cancer, 40: 2660-2680 (1977); F. M. Schabel et al., Cancer Drug Development, Part B, Methods in Cancer Research, 17: 3-51, New York, Academic Press Inc. (1979)].
# This efficacy may also be quantified by the number of tumor regressions observed after therapy. Individual mice reporting a tumor volume ≦50% of the Day 0 measurement for two consecutive measurements over a seven day period were considered partial responders (PR). Individual mice lacking palpable tumors (<4×4 mm^2 for two consecutive measurements over a seven day period) were classified as complete responders (CR); a CR that persisted until study completion was considered a tumor-free survivor (TFS).
# The efficacy of cabazitaxel in comparison with docetaxel on pediatric solid tumors was determined experimentally in the following manner:
# The animals subjected to the experiment are subcutaneously grafted unilaterally with approximately 30 mg of a tumor fragment on day 0. The animals are implanted with a human tumor xenografted in immunocompromized mice. Several days post tumor implantation, mice are randomized according to their body weight to the different groups of treatments and controls. The animals are observed every day. The different animal groups are weighed daily during treatment until the maximum weight loss is reached and subsequent full weight recovery has occurred. The groups are then weighed once or twice a week until the end of the trial.
# The tumors are measured 1 to 5 times a week, depending on the tumor doubling time, until the tumor reaches approximately 1,000 mm^3, or until the animal dies (if this occurs before the tumor reaches 1,000 mm^3). The animals are necropsied immediately after euthanasia or death.
# The selected tumor model was a human Ewing's sarcoma SK-ES-1, xenografted in SCID mice [Fogh J. New York: Plenum Press, 1975].
# Cabazitaxel and docetaxel were weighed for each treatment and dissolved in ethanol. Treatment solutions were prepared first by mixing 1 volume of ethanolic stock solution and 1 volume of polysorbate 80, then by adding 18 volumes of glucose 5% in water.
# The Td in days was estimated from the plot of the log linear growth of the control group tumors in exponential growth (100 to 1,000 mm^3 range) and the number of tumor regressions observed after therapy.
# The following end points have been used: • Toxicity was declared at dosages inducing ≧20% body weight loss or ≧10% drug death; • Relative tumor growth inhibition was determined on day 22 post tumor implantation when the median tumor size in the control group was 456 mm^3; • Antitumor efficacy was determined by calculating the ΔT/ΔC value in percent, according to the above-mentioned formula; • Tumor regressions (as explained above); • Statistical analysis performed (as explained above).
# [1] = 3.5 mg/kg per injection (total 7.0) IV days 15; 19
# [2] = 5.6 mg/kg per injection (total 11.2) IV days 15; 19
# [3] = 5.6 mg/kg per injection (total 11.2) IV days 15; 19; listed as CABAZITAXEL
# [4] = 9.0 mg/kg per injection (total 18) IV days 15; 19
# [5] = 9.0 mg/kg per injection (total 18) IV days 15; 19; listed as CABAZITAXEL
# [6] = 14.5 mg/kg per injection (total 29) IV days 15; 19
# [7] = 14.5 mg/kg per injection (total 29) IV days 15; 19; listed as CABAZITAXEL
smiles,measurement,setting,value
"CO[C@H]1C(=O)[C@]2(C)[C@@H](OC)C[C@H]3OC[C@@]3(OC(C)=O)[C@H]2[C@H](OC(=O)c2ccccc2)[C@]2(O)C[C@H](OC(=O)[C@H](O)[C@@H](NC(=O)OC(C)(C)C)c3ccccc3)C(C)=C1C2(C)C [Cabazitaxel, 4α-acetoxy-2α-benzoyloxy-5β,20-epoxy-1β-hydroxy-7β,10β-dimethoxy-9-oxo-11-taxen-13α-yl (2R,3S)-3-tert-butoxycarbonyl-amino-2-hydroxy-3-phenylpropionate]",Average body weight change in % per mouse at nadir,[1],−4.4%
same,Biological interpretation,[1],active
same,Drug death,[1],0/7
same,Regressions Complete,[1],0/7
same,Regressions Partial,[1],0/7
same,Tumor free survivors at day 120,[1],0/7
same,day of nadir,[1],16 days
same,ΔT/ΔC in % (day 22),[1],22%
same,Biological interpretation,3.5 mg/kg per injection (total 7.0) IV days 15; 19; listed as CABAZITAXEL,Active
same,Tumor volume changes from baseline: Median (nMad),"3.5 mg/kg, day 19",32
same,Tumor volume changes from baseline: Median (nMad),"3.5 mg/kg, day 22",41
same,Tumor volume changes from baseline: Median (nMad),"3.5 mg/kg, day 25",180
same,Tumor volume changes from baseline: Median (nMad),"3.5 mg/kg, day 28",499
same,Tumor volume changes from baseline: Median (nMad),3.5 mg/kg; day 19,32 (207.6)
same,Tumor volume changes from baseline: Median (nMad),3.5 mg/kg; day 22,41 (108.2)
same,Tumor volume changes from baseline: Median (nMad),3.5 mg/kg; day 25,180 (100.8)
same,Tumor volume changes from baseline: Median (nMad),3.5 mg/kg; day 28,499 (324.7)
same,Average body weight change in % per mouse at nadir,[2],−4.2%
same,Biological interpretation,[2],highly active
same,Drug death,[2],0/7
same,Regressions Complete,[2],0/7
same,Regressions Partial,[2],7/7
same,Tumor free survivors at day 120,[2],0/7
same,day of nadir,[2],16 days
same,Biological interpretation,[3],Highly Active
same,ΔT/ΔC in % (day 22),[3],<0%
same,PR,5.6 mg/kg per injection IV days 15; 19,100%
same,Tumor volume changes from baseline: Median (nMad),"5.6 mg/kg, day 19",−31
same,Tumor volume changes from baseline: Median (nMad),"5.6 mg/kg, day 22",−126
same,Tumor volume changes from baseline: Median (nMad),"5.6 mg/kg, day 25",−157
same,Tumor volume changes from baseline: Median (nMad),"5.6 mg/kg, day 28",−157
same,Tumor volume changes from baseline: Median (nMad),5.6 mg/kg; day 19,−31 (87.5)
same,Tumor volume changes from baseline: Median (nMad),5.6 mg/kg; day 22,−126 (86)
same,Tumor volume changes from baseline: Median (nMad),5.6 mg/kg; day 25,−157 (81.5)
same,Tumor volume changes from baseline: Median (nMad),5.6 mg/kg; day 28,−157 (81.5)
same,Tumor volume changes from baseline: Median (nMad),5.6 mg/kg; day 32,−128 (112.7)
same,Tumor volume changes from baseline: Median (nMad),5.6 mg/kg; day 35,−157 (112.7)
same,Average body weight change in % per mouse at nadir,[4],−6.3%
same,Biological interpretation,[4],highly active
same,Drug death,[4],0/7
same,Regressions Complete,[4],0/7
same,Regressions Partial,[4],7/7
same,Tumor free survivors at day 120,[4],0/7
same,day of nadir,[4],16 days
same,Biological interpretation,[5],Highly Active
same,ΔT/ΔC in % (day 22),[5],<0%
same,PR,9 mg/kg per injection IV days 15; 19,100%
same,Tumor volume changes from baseline: Median (nMad),"9 mg/kg, day 19",25
same,Tumor volume changes from baseline: Median (nMad),"9 mg/kg, day 22",−137
same,Tumor volume changes from baseline: Median (nMad),"9 mg/kg, day 25",−227
same,Tumor volume changes from baseline: Median (nMad),"9 mg/kg, day 28",−227
same,Tumor volume changes from baseline: Median (nMad),9 mg/kg; day 19,25 (37.1)
same,Tumor volume changes from baseline: Median (nMad),9 mg/kg; day 22,−137 (60.8)
same,Tumor volume changes from baseline: Median (nMad),9 mg/kg; day 25,−227 (100.8)
same,Tumor volume changes from baseline: Median (nMad),9 mg/kg; day 28,−227 (100.8)
same,Tumor volume changes from baseline: Median (nMad),9 mg/kg; day 32,−231 (78.6)
same,Tumor volume changes from baseline: Median (nMad),9 mg/kg; day 35,−231 (78.6)
same,Average body weight change in % per mouse at nadir,[6],−7.1%
same,Biological interpretation,[6],highly active
same,Drug death,[6],0/7
same,Regressions Complete,[6],6/7
same,Regressions Partial,[6],7/7
same,Tumor free survivors at day 120,[6],3/7
same,day of nadir,[6],20 days
same,Biological interpretation,[7],Highly Active
same,ΔT/ΔC in % (day 22),[7],<0%
same,Tumor volume changes from baseline: Median (nMad),"14.5 mg/kg, day 19",−108
same,Tumor volume changes from baseline: Median (nMad),"14.5 mg/kg, day 22",−203
same,Tumor volume changes from baseline: Median (nMad),"14.5 mg/kg, day 25",−221
same,Tumor volume changes from baseline: Median (nMad),"14.5 mg/kg, day 28",−221
same,Tumor volume changes from baseline: Median (nMad),14.5 mg/kg; day 19,−108 (91.9)
same,Tumor volume changes from baseline: Median (nMad),14.5 mg/kg; day 22,−203 (87.5)
same,Tumor volume changes from baseline: Median (nMad),14.5 mg/kg; day 25,−221 (81.5)
same,Tumor volume changes from baseline: Median (nMad),14.5 mg/kg; day 28,−221 (81.5)
same,Tumor volume changes from baseline: Median (nMad),14.5 mg/kg; day 32,−221 (87.5)
same,Tumor volume changes from baseline: Median (nMad),14.5 mg/kg; day 35,−221 (87.5)
same,Tumor volume changes from baseline: Median (nMad),14.5 mg/kg; day 39,−221 (108.2)
same,Tumor volume changes from baseline: Median (nMad),14.5 mg/kg; day 41,−221 (140.8)
same,Tumor volume changes from baseline: Median (nMad),14.5 mg/kg; day 43,−221 (140.8)
same,Tumor volume changes from baseline: Median (nMad),14.5 mg/kg; day 45,−144 (222.4)
same,antitumor activity compared with docetaxel,conclusion of example 3,more also active than docetaxel
